ChEMBL document CHEMBL1201862, “PubChem BioAssay data set” (2004)
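Growth conditions: 96-well plates. Treatment: test compound, 48 hours, 5 concentrations. Analysis: linear interpolation between bracketing concentrations; unreached endpoints set to highest concentration. GI50 is the concentration that inhibits growth by half.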 Activity calls are given as the source filed them. Cut-off read from the data, not from the text of the source: active = GI50 up to about 1.1 µM and inactive = higher.

Experiments:
Experiment in all cases: growth of human tumour cells (NCI), 48 h
Malme-3M = test system: Malme-3M
UO-31 = test system: UO-31
CAKI-1 = test system: CAKI-1
A498 = test system: A498
SW-620 = test system: SW-620
SF-268 = test system: SF-268
SNB-19 = test system: SNB-19
HCT-116 = test system: HCT-116
SK-MEL-28 = test system: SK-MEL-28
KM12 = test system: KM12
PC-3 = test system: PC-3
DU-145 = test system: DU-145
MOLT-4 = test system: MOLT-4
786-0 = test system: 786-0
SNB-75 = test system: SNB-75
M14 = test system: M14
CCRF-CEM = test system: CCRF-CEM
ACHN = test system: ACHN
OVCAR-8 = test system: OVCAR-8
NCI-H460 = test system: NCI-H460

Measured: GI50

CC1=C(C)C(=O)O[C@@H]([C@](C)(O)[C@]2(O)CC[C@@]3(O)[C@@H]4C[C@H](O)[C@]5(O)[C@@H](O)C=CC(=O)[C@]5(C)[C@H]4CC[C@]23C)C1
inactive: Malme-3M > 100 µM | UO-31 > 100 µM | CAKI-1 > 100 µM | A498 > 100 µM | SW-620 > 100 µM | SF-268 > 100 µM | SNB-19 > 100 µM | HCT-116 86.9 µM | SK-MEL-28 > 100 µM | KM12 > 100 µM | PC-3 > 100 µM | DU-145 > 100 µM | MOLT-4 > 100 µM | 786-0 > 100 µM | SNB-75 37.2 µM | M14 > 100 µM | CCRF-CEM 28.4 µM | ACHN > 100 µM | OVCAR-8 > 100 µM | NCI-H460 > 100 µM

C=CC(COC(=O)C(C)(C)OC(C)=O)c1ccc(OC(=O)C(C)C)c(OC)c1 (stereo not given)
inactive: Malme-3M 2.7 µM | UO-31 7.69 µM | CAKI-1 1.96 µM | A498 17.2 µM | SW-620 4.84 µM | SF-268 5.2 µM | SNB-19 11.1 µM | HCT-116 4.05 µM | SK-MEL-28 5.19 µM | KM12 4.07 µM | PC-3 9.68 µM | DU-145 11.2 µM | MOLT-4 3.62 µM | 786-0 7.38 µM | SNB-75 7.16 µM | M14 6.43 µM | CCRF-CEM 2.78 µM | ACHN 2.88 µM | OVCAR-8 9.82 µM | NCI-H460 2.62 µM
